Measured values from paper PMC11266321 (EJNMMI Radiopharmacy and Chemistry, 2024).

Experiments:
[1] = test system: β-Adrenergic (non-selective); test: Radioligand binding inhibition, β-Adrenergic; conditions: 10 µM; radioligand [^3H]DHA; mean of duplicate
Procedure: (§1) Interaction of MMP with 28 binding sites was examined, including major classes of neurotransmitter receptor, uptake system, and ion channels (Sekisui Medical, Naka, Japan). MMP was tested in all assays at 10 µM. […] 10.2.3 (GraphPad Software, San Diego, CA). Each determination was made in duplicate.
(§2) Test substance concentration : 10 µM, positive substance concentration : 10 µM
(§3) Data are expressed as the mean values of duplicate samples.
(§4) The % inhibition was calculated from “100 – binding ratio”.
(§5) Binding ratio: [(B - N) / (B0 - N)] × 100 (%)
(§6) B: Bound radioactivity in the presence of test substance and positive substance (individual value)
(§7) B0: Total bound radioactivity in the absence of test substance and positive substance (mean value)
(§8) N: Non-specific bound radioactivity (mean value)

[2] = test system: Glutamate (AMPA); test: Radioligand binding inhibition, Glutamate AMPA; conditions: 10 µM; radioligand [^3H]AMPA; mean of duplicate
Procedure: as §1, §2, §3, §4, §5, §6, §7, §8

[3] = biological target: T1, Histamine H2 (Homo sapiens, UniProt P25021); test: Radioligand binding inhibition, Histamine H2; conditions: 10 µM; radioligand [^125I]Iodoaminopotentidine; mean of duplicate
T1 construct: Sekisui Medical (contract laboratory)
T1 sequence (P25021 whole entry): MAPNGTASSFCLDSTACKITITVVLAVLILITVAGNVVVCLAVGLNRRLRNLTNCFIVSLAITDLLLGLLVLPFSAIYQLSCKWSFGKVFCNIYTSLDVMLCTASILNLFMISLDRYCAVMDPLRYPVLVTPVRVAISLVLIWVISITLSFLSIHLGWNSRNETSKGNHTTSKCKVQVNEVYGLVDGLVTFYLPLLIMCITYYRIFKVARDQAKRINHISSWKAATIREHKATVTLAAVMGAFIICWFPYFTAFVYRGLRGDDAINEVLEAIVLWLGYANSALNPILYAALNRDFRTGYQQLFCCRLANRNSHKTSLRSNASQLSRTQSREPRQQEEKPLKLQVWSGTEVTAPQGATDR
Procedure: as §1, §2, §3, §4, §5, §6, §7, §8

[4] = test system: GABA A (BZ central); test: Radioligand binding inhibition, GABA A BZ central; conditions: 10 µM; radioligand [^3H]Flunitrazepam; mean of duplicate
Procedure: as §1, §2, §3, §4, §5, §6, §7, §8

[5] = test system: Glutamate (Ketamine); test: Radioligand binding inhibition, Glutamate (Ketamine); conditions: 10 µM; radioligand [^3H]Kainic acid; mean of duplicate
[6] = biological target: T2, Serotonin 5HT2A (Homo sapiens, UniProt P28223); test: Radioligand binding inhibition, Serotonin 5HT2A; conditions: 10 µM; radioligand [^3H]Ketanserin; mean of duplicate
T2 construct: Sekisui Medical (contract laboratory that ran the panel)
T2 sequence (P28223 whole entry): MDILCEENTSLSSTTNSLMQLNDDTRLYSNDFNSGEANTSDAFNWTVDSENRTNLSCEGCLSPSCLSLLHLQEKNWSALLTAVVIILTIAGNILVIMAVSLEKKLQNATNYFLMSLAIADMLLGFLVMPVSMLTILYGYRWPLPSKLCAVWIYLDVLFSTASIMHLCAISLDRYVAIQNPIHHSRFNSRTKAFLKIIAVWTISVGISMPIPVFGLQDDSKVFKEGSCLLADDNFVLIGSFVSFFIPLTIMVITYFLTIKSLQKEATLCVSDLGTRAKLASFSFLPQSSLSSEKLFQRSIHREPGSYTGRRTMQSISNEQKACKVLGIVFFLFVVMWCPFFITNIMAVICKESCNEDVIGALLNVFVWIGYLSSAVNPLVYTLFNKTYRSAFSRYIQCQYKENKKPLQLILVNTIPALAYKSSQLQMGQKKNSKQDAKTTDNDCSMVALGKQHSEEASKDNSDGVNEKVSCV
Procedure: as §1, §2, §3, §4, §5, §6, §7, §8

[7] = test system: Glutamate (NMDA agonist site); test: Radioligand binding inhibition, Glutamate NMDA agonist site; conditions: 10 µM; radioligand [^3H]CGP-39653; mean of duplicate
Procedure: as §1, §2, §3, §4, §5, §6, §7, §8

[8] = test system: Glutamate (non-selective); test: Radioligand binding inhibition, Glutamate non-selective; conditions: 10 µM; radioligand [^3H]Glutamic acid; mean of duplicate
Procedure: as §1, §2, §3, §4, §5, §6, §7, §8

[9] = biological target: T3, Glutamate (NMDA glycine site) (Homo sapiens, UniProt Q05586); test: Radioligand binding inhibition, Glutamate NMDA glycine site; conditions: 10 µM; radioligand [^3H]MDL105,519; mean of duplicate
T3 construct: Sekisui Medical (contract laboratory)
Procedure: as §1, §2, §3, §4, §5, §6, §7, §8

[10] = test system: GABA A (agonist site); test: Radioligand binding inhibition, GABA A agonist site; conditions: 10 µM; radioligand [^3H]Muscimol; mean of duplicate
Procedure: as §1, §2, §3, §4, §5, §6, §7, §8

[11] = test system: Opiate (non-selective); test: Radioligand binding inhibition, Opiate; conditions: 10 µM; radioligand [^3H]Naloxone; mean of duplicate
Procedure: as §1, §2, §3, §4, §5, §6, §7, §8

[12] = biological target: T4, Serotonin 5HT1A (Homo sapiens, UniProt P08908); test: Radioligand binding inhibition, Serotonin 5HT1A; conditions: 10 µM; radioligand [^3H]8-OH DPAT; mean of duplicate
T4 construct: Sekisui Medical (contract laboratory)
T4 sequence (P08908 whole entry): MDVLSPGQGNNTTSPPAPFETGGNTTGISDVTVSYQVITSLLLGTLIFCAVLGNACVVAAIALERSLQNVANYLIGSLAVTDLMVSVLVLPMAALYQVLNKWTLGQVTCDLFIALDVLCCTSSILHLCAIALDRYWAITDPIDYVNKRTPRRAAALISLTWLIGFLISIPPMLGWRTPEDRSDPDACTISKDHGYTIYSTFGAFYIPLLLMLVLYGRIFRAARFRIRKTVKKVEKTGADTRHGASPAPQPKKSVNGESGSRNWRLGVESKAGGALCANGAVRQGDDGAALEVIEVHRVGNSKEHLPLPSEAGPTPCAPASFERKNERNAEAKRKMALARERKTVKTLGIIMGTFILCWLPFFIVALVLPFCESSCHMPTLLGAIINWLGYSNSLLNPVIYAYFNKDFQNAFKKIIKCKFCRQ
Procedure: as §1, §2, §3, §4, §5, §6, §7, §8

[13] = test system: Glycine (strychnine site); format: binding; conditions: 10 µM; radioligand [^3H]Strychine; mean of duplicate
[14] = biological target: T5, Serotonin 5HT3 (human) (Homo sapiens, UniProt P46098); test: Radioligand binding inhibition, Serotonin 5HT3; conditions: 10 µM; radioligand [^3H]GR65630; mean of duplicate
T5 construct: Sekisui Medical (contract laboratory that ran the panel)
T5 sequence (P46098 24-478): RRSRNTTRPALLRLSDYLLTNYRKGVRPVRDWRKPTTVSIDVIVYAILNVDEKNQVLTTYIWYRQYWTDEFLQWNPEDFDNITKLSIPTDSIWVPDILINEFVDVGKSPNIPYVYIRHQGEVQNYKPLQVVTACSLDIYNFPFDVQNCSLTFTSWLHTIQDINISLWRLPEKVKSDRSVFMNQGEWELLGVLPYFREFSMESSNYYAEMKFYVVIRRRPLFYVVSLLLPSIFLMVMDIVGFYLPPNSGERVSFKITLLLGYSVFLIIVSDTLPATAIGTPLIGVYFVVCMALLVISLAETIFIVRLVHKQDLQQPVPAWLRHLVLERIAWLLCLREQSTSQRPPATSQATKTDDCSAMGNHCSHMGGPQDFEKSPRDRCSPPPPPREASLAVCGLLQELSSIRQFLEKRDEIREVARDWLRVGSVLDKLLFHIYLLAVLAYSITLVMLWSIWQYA
Procedure: as §1, §2, §3, §4, §5, §6, §7, §8

[15] = test system: α2-Adrenergic (non-selective); test: Radioligand binding inhibition, α2-Adrenergic; conditions: 10 µM; radioligand [^3H]Rauwolscine; mean of duplicate
Procedure: as §1, §2, §3, §4, §5, §6, §7, §8

[16] = biological target: T6, Dopamine D2 (Homo sapiens, UniProt P14416); test: Radioligand binding inhibition, Dopamine D2; conditions: 10 µM; radioligand [^3H]Spiperone; mean of duplicate
T6 construct: Sekisui Medical (contract laboratory)
T6 sequence (P14416 whole entry): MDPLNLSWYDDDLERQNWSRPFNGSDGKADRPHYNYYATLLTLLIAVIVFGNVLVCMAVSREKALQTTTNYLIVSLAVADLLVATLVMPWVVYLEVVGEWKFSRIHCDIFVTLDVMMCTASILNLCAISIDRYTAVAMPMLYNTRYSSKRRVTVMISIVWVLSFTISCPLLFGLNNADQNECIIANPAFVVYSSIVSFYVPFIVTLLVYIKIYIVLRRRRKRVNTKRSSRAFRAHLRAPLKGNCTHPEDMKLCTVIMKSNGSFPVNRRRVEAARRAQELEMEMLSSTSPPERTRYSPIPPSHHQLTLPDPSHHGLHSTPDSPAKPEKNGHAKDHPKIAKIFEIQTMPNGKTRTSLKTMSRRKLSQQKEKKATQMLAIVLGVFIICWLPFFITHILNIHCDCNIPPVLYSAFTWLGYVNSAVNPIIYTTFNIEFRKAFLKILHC
Procedure: as §1, §2, §3, §4, §5, §6, §7, §8

[17] = test system: Glutamate (NMDA phencyclidine site); test: Radioligand binding inhibition, Glutamate NMDA phencyclidine site; conditions: 10 µM; radioligand [^3H]MK-801; mean of duplicate
Procedure: as §1, §2, §3, §4, §5, §6, §7, §8

[18] = test system: Nicotinic (neuronal); format: binding; conditions: 10 µM; radioligand [^3H]Cytisine; mean of duplicate

## CC(C)NCC(O)COc1cccc2ccccc12 (racemic) [(±)-Propranolol, reference compound]
[1]
  Inhibition ratio (%): 97.25%

## Cc1o[nH]c(=O)c1C[C@H](N)C(=O)O [(S)-AMPA, reference compound]
[2]
  Inhibition ratio (%): 98.65%

## CN/C(=N/CCSCc1nc[nH]c1C)NC#N [Cimetidine, reference compound]
[3]
  Inhibition ratio (%): 97.63%

## CN1C(=O)CN=C(c2ccccc2)c2cc(Cl)ccc21 [Diazepam, reference compound]
[4]
  Inhibition ratio (%): 100.00%

## C=C(C)[C@H]1CN[C@H](C(=O)O)[C@H]1CC(=O)O [Kainic acid, reference compound]
[5]
  Inhibition ratio (%): 97.79%

## O=C(c1ccc(F)cc1)C1CCN(CCn2c(=O)[nH]c3ccccc3c2=O)CC1 [Ketanserin, reference compound]
[6]
  Inhibition ratio (%): 98.94%

## N[C@@H](CCC(=O)O)C(=O)O [L-Glutamic acid, reference compound]
[7]
  Inhibition ratio (%): 100.00%
[8]
  Inhibition ratio (%): 93.56%

## O=C(O)/C(=C/c1c(C(=O)O)[nH]c2cc(Cl)cc(Cl)c12)c1ccccc1 [MDL105,519, reference compound]
[9]
  Inhibition ratio (%): 97.35%

## NCc1cc(=O)[nH]o1 [Muscimol, reference compound]
[10]
  Inhibition ratio (%): 96.50%

## C=CCN1CC[C@]23c4c5ccc(O)c4O[C@H]2C(=O)CC[C@@]3(O)[C@H]1C5 [Naloxone, reference compound]
[11]
  Inhibition ratio (%): 96.53%

## NCCc1c[nH]c2ccc(O)cc12 [Serotonin, reference compound]
[12]
  Inhibition ratio (%): 95.99%

## O=C1C[C@@H]2OCC=C3CN4CC[C@]56c7ccccc7N1[C@H]5[C@H]2[C@H]3C[C@H]46 [Strychnine, reference compound]
[13]
  Inhibition ratio (%): 100.00%

## CN1[C@@H]2CC[C@H]1C[C@@H](OC(=O)c1c[nH]c3ccccc13)C2 [Tropisetron, reference compound]
[14]
  Inhibition ratio (%): 99.78%

## COC(=O)[C@@H]1[C@H]2C[C@H]3c4[nH]c5ccccc5c4CCN3C[C@@H]2CC[C@@H]1O [Yohimbine, reference compound]
[15]
  Inhibition ratio (%): 89.82%

## (+)-Butaclamol [reference compound]
[16]
  Inhibition ratio (%): 95.06%

## (+)-MK-801 [reference compound]
[17]
  Inhibition ratio (%): 100.00%

## (±)-Nicotine [reference compound]
[18]
  Inhibition ratio (%): 95.62%
